In patent US9676793B2, “Co-crystals of 5-amino-2-oxothiazolo[4,5-d]pyrimidin-3(2H)-yl-5-hydroxymethyl tetrahydrofuran-3-yl acetate and methods for preparing and using the same” (Hoffmann-La Roche Inc., priority 2014, dated 2017):

System: HBV
Experiment: Indirect inhibition of HBV replication by conditioned media from stimulated PBMCs
Type: cell-based, HBV (genotype D, strain ayw)
Method: TLR-7 agonists stimulate the production cytokines and chemokines from human PBMC's. Conditioned medium was obtained by contacting cultured PBMC's with DMSO (control) or 100 μM R06871765 (drug) was contacted with HBV infected HepaRGd cells.
HBV infected HepaRGd cells were incubated with various dilutions of conditioned media collected from PBMCs isolated from healthy donors—donor 70615 (graphs A-D) and donor 77726 (graphs E, F). The PBMC's from each donor were stimulated with either DMSO (graphs A, C, E) or 100 μM R06871765 (graphs B, D, F). […] Three experiments were performed. In the first experiment (FIGS. 4A, 4B), conditioned media from PBMCs (donor 70615) was first diluted 10-fold using differentiation media, and then serially diluted in 3-fold increments prior to addition of each of the diluted conditioned medium to HBV infected HepaRGd cells. In the second experiment (FIGS. 4C, 4D), conditioned media from PBMCs (donor 70615) was first diluted 5-fold using differentiation media, and then serially diluted in 5-fold increments prior to addition to HBV infected HepaRGd cells. In the third experiment (FIGS. 4E, 4F), conditioned media from PBMCs (donor 77726) was first diluted 5-fold using differentiation media, and then serially diluted in 5-fold increments prior to addition to HBV infected HepaRGd cells. The HBV replication inhibitory activity for control and R06871765 treated cells was determined by monitoring the levels of HBV DNA and HBsAg secreted in culture medium.

[1] = conditioned media of PBMCs stimulated with 100 μM
[2] = conditioned media of PBMCs stimulated with 100 μM, Feb. 28, 2013 donor 77726
[3] = conditioned media of PBMCs stimulated with 100 μM, Jan. 3, 2013 donor 70615
[4] = conditioned media of PBMCs stimulated with 100 μM, Nov. 12, 2012 donor 70615
[5] = stimulated PBMC conditioned media

**Q.** With `Nc1nc2c(sc(=O)n2[C@@H]2O[C@H](CO)C[C@H]2O)c(=O)[nH]1` [R06871765] as the molecule, how does the “EC50 converted fold dilution, HBV DNA secretion” value [1] read?
**A.** 318 fold dilution

**Q.** And the “EC50 converted fold dilution, HBsAg secretion” value [1]?
**A.** 16 fold dilution

**Q.** And the “EC50 [log dilution], HBV DNA secretion” value [2]?
**A.** −2.1 log dilution

**Q.** And the “EC50 [log dilution], HBsAg secretion” value [2]?
**A.** −1.0 log dilution

**Q.** What about the “EC50 [log dilution], HBV DNA secretion” value [3] of the same molecule?
**A.** −2.9 log dilution

**Q.** And the “EC50 [log dilution], HBsAg secretion” value [3]?
**A.** −1.4 log dilution

**Q.** And the “EC50 [log dilution], HBV DNA secretion” value [4]?
**A.** −2.5 log dilution

**Q.** And the “EC50 [log dilution], HBsAg secretion” value [4]?
**A.** <−1.0 log dilution

**Q.** What about the “EC50 [log dilution], HBsAg secretion, Ave ± SD” value (conditioned media of PBMCs stimulated with 100 μM, average) of the same molecule?
**A.** −1.2 log dilution

**Q.** And the “EC50 [log dilution], HBV DNA secretion, Ave ± SD” value (conditioned media of PBMCs stimulated with 100 μM, average of three experiments)?
**A.** −2.5 ± 0.4 log dilution

**Q.** And the “average EC50 against HBV DNA” value [5]?
**A.** −2.5±0.4 log10

**Q.** And the “average EC50 against HBV surface antigen (HBsAg) secretion” value [5]?
**A.** −1.2 log10
